Values quoted from earlier work in patent publication US11969487B2, “Non-cellular root canal filling material and non-cellular dental tissue regeneration promoting kit” (Kowa Company, Ltd., priority 2017, dated 2024).
Read-outs that look alike come from different tables or passages of the source.

Legend:
[1] = test system: dental pulp regeneration in dogs
[2] = test system: dental pulp stem cells on dentin surfaces; conditions: dental pulp stem cells seeded on treated dentin surfaces in vitro

## trypsin
[1]; no transplantation of dental pulp stem cells
  dental pulp regeneration: hardly observed
[1]; root canals pretreated before dental pulp stem cell transplantation, middle-aged and elderly individuals
  dental pulp regeneration: promoted
[1]; young dogs
  effect of pretreatment on the dental pulp regeneration: no effect
[2]
  adhesion of the cells: increased
  differentiation into odontoblasts: promotion of differentiation into odontoblasts was observed
